Experiments:
Assay type in all cases: in vivo
[1] = tested on: blackgrass (Alopecurus myosuroides); test: Test A greenhouse herbicide test, postemergence; details: for Blackgrass plant response rating: 0 is no effect, 100 is complete control
Method in brief: (§1)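 Pot-grown plants (loam soil/sand blend), 2–10 cm tall at the one- to two-leaf stage, received postemergence sprays of formulated test chemical. After about 10 d in the greenhouse, injury was rated visually against untreated controls on a 0 (no effect) to 100 (complete control) scale.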

[2] = tested on: galium (catchweed bedstraw, Galium aparine); test: Test A greenhouse herbicide test, postemergence; details: for Galium plant response rating: 0 is no effect, 100 is complete control
Method in brief: as §1

[3] = tested on: rice (Oryza sativa); test: Test B flooded paddy test; details: 250 g ai/ha, Flood; visual rating on scale of 0 to 100 where 0 is no effect and 100 is complete control; 13 to 15 d after treatment
Method in brief: (§2)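 Plants grown to the 2-leaf stage. At treatment, pots were flooded to 3 cm above the soil, compound was applied directly to the paddy water, and that depth was held throughout. After 13 to 15 d in the greenhouse, response was rated visually against controls on a 0 (no effect) to 100 (complete control) scale.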

[4] = tested on: barnyardgrass (Echinochloa crus-galli); test: Test B flooded paddy test; details: 250 g ai/ha, Flood; visual rating on scale of 0 to 100 where 0 is no effect and 100 is complete control; 13 to 15 d after treatment
Method in brief: as §2

[5] = tested on: sedge, umbrella (small-flower umbrella sedge, Cyperus difformis); test: Test B flooded paddy test; details: 250 g ai/ha, Flood; visual rating on scale of 0 to 100 where 0 is no effect and 100 is complete control; 13 to 15 d after treatment
Method in brief: as §2

[6] = tested on: ducksalad (Heteranthera limosa); test: Test B flooded paddy test; details: 250 g ai/ha, Flood; visual rating on scale of 0 to 100 where 0 is no effect and 100 is complete control; 13 to 15 d after treatment
Method in brief: as §2

[7] = tested on: kochia (Kochia scoparia); test: Test A greenhouse herbicide test, pre- and postemergence
Method in brief: (§3)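 Seeds in loam–sand blend received a preemergence directed soil spray; plants at 2–10 cm, one- to two-leaf stage, received postemergence sprays. Compounds in a non-phytotoxic solvent with surfactant. After about 10 d in a greenhouse, injury rated visually versus untreated controls on a 0–100 scale (100 = complete control).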

[8] = tested on: foxtail, giant (giant foxtail, Setaria faberii); test: as above
Method in brief: as §3

[9] = tested on: ryegrass, Italian (Italian ryegrass, Lolium multiflorum); test: as above
Method in brief: as §3

[10] = tested on: pigweed (Amaranthus retroflexus); test: as above
Method in brief: as §3

[11] = tested on: wheat (Triticum aestivum); test: as above; details: Postemergence; for Wheat plant response rating: 0 is no effect, 100 is complete control
Method in brief: as §3

[12] = tested on: corn (Zea mays); test: as above; details: Postemergence; for Corn plant response rating: 0 is no effect, 100 is complete control
Method in brief: as §3

[13] = tested on: barnyardgrass (Echinochloa crus-galli); test: as above
Method in brief: as §3

[14] = tested on: ragweed (common ragweed, Ambrosia elatior); test: as above
Method in brief: as §3

[15] = 125 g ai/ha, 0 to 100 scale where 0 is no effect and 100 is complete control
[16] = 500 g ai/ha, visual rating after approx. 10 d, 0 to 100 scale (0 no effect, 100 complete control)
[17] = Postemergence, 125 g ai/ha, 0 to 100 scale where 0 is no effect and 100 is complete control
[18] = Postemergence, 500 g ai/ha, visual rating after approx. 10 d, 0 to 100 scale (0 no effect, 100 complete control)
[19] = Preemergence, 125 g ai/ha, 0 to 100 scale where 0 is no effect and 100 is complete control
[20] = Preemergence, 500 g ai/ha, 0 to 100 scale where 0 is no effect and 100 is complete control
[21] = Postemergence, 500 g ai/ha, 0 to 100 scale, 0 is no effect, 100 is complete control
[22] = 125 g ai/ha, 0 to 100 scale, 0 no effect, 100 complete control
[23] = Postemergence, 125 g ai/ha, 0 to 100 scale, 0 no effect, 100 complete control
[24] = Preemergence, 125 g ai/ha, visual injury rating, 0 to 100 scale (0 no effect, 100 complete control), approx. 10 d
[25] = Postemergence, 1000 g ai/ha, 0 to 100 scale, 0 is no effect, 100 is complete control
[26] = Preemergence, 1000 g ai/ha, 0 to 100 scale, 0 no effect, 100 complete control

## COC(=O)Oc1c(C)nn(C)c(=O)c1-c1c(C(F)(F)F)ccc2ccccc12 [Compound 149]
[1]; [15]
  Plant response rating, Blackgrass: 30
[1]; [16]
  Plant response rating, Blackgrass: 70
[2]; [15]
  Plant response rating, Galium: 90
[2]; [16]
  Plant response rating, Galium: 100
[3]
  Plant response rating, Rice: 0
[4]
  Plant response rating, Barnyardgrass: 0
[5]
  Plant response rating, Sedge, Umbrella: 0
[6]
  Plant response rating, Ducksalad: 0
[7]; [17]
  Plant response rating, Kochia: 80
[7]; [18]
  Plant response rating, Kochia: 100
[7]; [19]
  Kochia plant response rating: 40
[7]; [20]
  Plant response rating, Kochia: 90
[8]; [17]
  Plant response rating, Foxtail, Giant: 40
[8]; [18]
  Plant response rating, Foxtail, Giant: 80
[8]; [19]
  Foxtail, Giant plant response rating: 30
[8]; [20]
  Plant response rating, Foxtail, Giant: 90
[9]; [17]
  Plant response rating, Ryegrass, Italian: 70
[9]; [18]
  Plant response rating, Ryegrass, Italian: 100
[9]; [20]
  Plant response rating, Ryegrass, Italian: 90
[10]; [17]
  Plant response rating, Pigweed: 90
[10]; [18]
  Plant response rating, Pigweed: 100
[10]; [19]
  Pigweed plant response rating: 100
[10]; [20]
  Plant response rating, Pigweed: 100
[11]; [15]
  Plant response rating, Wheat: 20
[11]; [16]
  Plant response rating, Wheat: 70
[12]; [15]
  Plant response rating, Corn: 20
[12]; [16]
  Plant response rating, Corn: 30
[13]; [17]
  Plant response rating, Barnyardgrass: 20
[13]; [18]
  Plant response rating, Barnyardgrass: 20
[13]; [19]
  Barnyardgrass plant response rating: 0
[13]; [20]
  Plant response rating, Barnyardgrass: 70
[14]; [17]
  Plant response rating, Ragweed: 90
[14]; [18]
  Plant response rating, Ragweed: 90
[14]; [20]
  Plant response rating, Ragweed: 90

## CCOc1ccc2oc(CC)c(-c3c(O)c(C)nn(C)c3=O)c2c1 [Compound 68]
[1]; [15]
  Plant response rating, Blackgrass: 0
[1]; 500 g ai/ha, 0 to 100 scale
  Blackgrass plant response rating: 10
[2]; [15]
  Plant response rating, Galium: 0
[2]; 500 g ai/ha, 0 to 100 scale
  Galium plant response rating: 0
[3]
  Plant response rating, Rice: 0
[4]
  Plant response rating, Barnyardgrass: 0
[5]
  Plant response rating, Sedge, Umbrella: 30
[6]
  Plant response rating, Ducksalad: 0
[7]; [17]
  Plant response rating, Kochia: 0
[7]; [21]
  Kochia plant response rating: 0
[7]; [19]
  Kochia plant response rating: 0
[7]; [20]
  Plant response rating, Kochia: 0
[8]; [17]
  Plant response rating, Foxtail, Giant: 10
[8]; [21]
  Foxtail, Giant plant response rating: 50
[8]; [19]
  Foxtail, Giant plant response rating: 10
[8]; [20]
  Plant response rating, Foxtail, Giant: 50
[9]; [17]
  Plant response rating, Ryegrass, Italian: 0
[9]; [21]
  Ryegrass, Italian plant response rating: 0
[9]; [19]
  Ryegrass, Italian plant response rating: 0
[9]; [20]
  Plant response rating, Ryegrass, Italian: 0
[10]; [17]
  Plant response rating, Pigweed: 0
[10]; [21]
  Pigweed plant response rating: 0
[10]; [19]
  Pigweed plant response rating: 0
[10]; [20]
  Plant response rating, Pigweed: 0
[11]; [15]
  Plant response rating, Wheat: 0
[11]; 500 g ai/ha, 0 to 100 scale
  Wheat plant response rating: 0
[12]; [15]
  Plant response rating, Corn: 0
[12]; 500 g ai/ha, 0 to 100 scale
  Corn plant response rating: 0
[13]; [17]
  Plant response rating, Barnyardgrass: 70
[13]; [21]
  Barnyardgrass plant response rating: 80
[13]; [19]
  Barnyardgrass plant response rating: 10
[13]; Preemergence, 500 g ai/ha, 0 to 100 scale, 0 no effect, 100 complete control
  Plant response rating, Barnyardgrass: 40
[14]; [17]
  Plant response rating, Ragweed: 0
[14]; [21]
  Ragweed plant response rating: 0
[14]; [19]
  Ragweed plant response rating: 0
[14]; [20]
  Plant response rating, Ragweed: 20

## Cc1nn(C)c(=O)c(-c2ccc(Cl)c3ccccc23)c1OC(=O)C(F)(F)F [Compound 159]
[1]; [22]
  Plant response rating, Blackgrass: 70
[1]; [16]
  Plant response rating, Blackgrass: 70
[2]; [22]
  Plant response rating, Galium: 100
[2]; [16]
  Plant response rating, Galium: 100
[3]
  Plant response rating, Rice: 0
[4]
  Plant response rating, Barnyardgrass: 0
[5]
  Plant response rating, Sedge, Umbrella: 50
[6]
  Plant response rating, Ducksalad: 0
[7]; [23]
  Plant response rating, Kochia: 100
[7]; [18]
  Plant response rating, Kochia: 100
[7]; [24]
  Plant response rating, Kochia: 100
[7]; [20]
  Plant response rating, Kochia: 100
[8]; [23]
  Plant response rating, Foxtail, Giant: 50
[8]; [18]
  Plant response rating, Foxtail, Giant: 80
[8]; [24]
  Plant response rating, Foxtail, Giant: 60
[8]; [20]
  Plant response rating, Foxtail, Giant: 80
[9]; [23]
  Plant response rating, Ryegrass, Italian: 100
[9]; [18]
  Plant response rating, Ryegrass, Italian: 100
[9]; [24]
  Plant response rating, Ryegrass, Italian: 100
[9]; [20]
  Plant response rating, Ryegrass, Italian: 100
[10]; [23]
  Plant response rating, Pigweed: 60
[10]; [18]
  Plant response rating, Pigweed: 80
[10]; [24]
  Plant response rating, Pigweed: 100
[10]; [20]
  Plant response rating, Pigweed: 100
[11]; [22]
  Plant response rating, Wheat: 0
[11]; [16]
  Plant response rating, Wheat: 30
[12]; [22]
  Plant response rating, Corn: 20
[12]; [16]
  Plant response rating, Corn: 40
[13]; [23]
  Plant response rating, Barnyardgrass: 40
[13]; [18]
  Plant response rating, Barnyardgrass: 80
[13]; [24]
  Plant response rating, Barnyardgrass: 50
[13]; [20]
  Plant response rating, Barnyardgrass: 80
[14]; [23]
  Plant response rating, Ragweed: 100
[14]; [18]
  Plant response rating, Ragweed: 100
[14]; [24]
  Plant response rating, Ragweed: 80
[14]; [20]
  Plant response rating, Ragweed: 80

## C#CCOc1c(C)nn(C)c(=O)c1-c1cccc2ccccc12 [Compound 179]
[1]; 1000 g ai/ha, 0 to 100 scale
  Blackgrass plant response rating: 40
[2]; 1000 g ai/ha, 0 to 100 scale
  Galium plant response rating: 90
[3]
  Plant response rating, Rice: 0
[4]
  Plant response rating, Barnyardgrass: 0
[5]
  Plant response rating, Sedge, Umbrella: 0
[6]
  Plant response rating, Ducksalad: 0
[7]; [25]
  Kochia plant response rating: 10
[7]; [26]
  Plant response rating, Kochia: 30
[8]; [25]
  Foxtail, Giant plant response rating: 10
[8]; [26]
  Plant response rating, Foxtail, Giant: 30
[9]; [25]
  Ryegrass, Italian plant response rating: 70
[9]; [26]
  Plant response rating, Ryegrass, Italian: 30
[10]; [25]
  Pigweed plant response rating: 0
[10]; [26]
  Plant response rating, Pigweed: 80
[11]; 1000 g ai/ha, 0 to 100 scale
  Wheat plant response rating: 0
[12]; 1000 g ai/ha, 0 to 100 scale
  Corn plant response rating: 10
[13]; [25]
  Barnyardgrass plant response rating: 10
[13]; [26]
  Plant response rating, Barnyardgrass: 0
[14]; [25]
  Ragweed plant response rating: 40
[14]; [26]
  Plant response rating, Ragweed: 50
